Assay results taken from publication PMC6447857, “Structural Study of Agmatine Iminohydrolase From Medicago truncatula, the Second Enzyme of the Agmatine Route of Putrescine Biosynthesis in Plants” (Frontiers in Plant Science, 2019).

Biological target: T1, MtAIH (Medicago truncatula, UniProt G7JT50)
T1 construct: gene AIH; ORF from codon 11 (leaf cDNA), pMCSG68, N-terminal His6-tag removed by TEV, Ser-Asn-Ala linker kept; E. coli BL21 Gold; homodimer (81 kDa by MALS)
Test: X-ray crystallography (cocrystallization), […] A
Type: binding
Conditions: 10 mM ligand, Morpheus Screen, pH 6.5; active site; reaction product analog; bound in three of four chains

T1 sequence (G7JT50 11-374): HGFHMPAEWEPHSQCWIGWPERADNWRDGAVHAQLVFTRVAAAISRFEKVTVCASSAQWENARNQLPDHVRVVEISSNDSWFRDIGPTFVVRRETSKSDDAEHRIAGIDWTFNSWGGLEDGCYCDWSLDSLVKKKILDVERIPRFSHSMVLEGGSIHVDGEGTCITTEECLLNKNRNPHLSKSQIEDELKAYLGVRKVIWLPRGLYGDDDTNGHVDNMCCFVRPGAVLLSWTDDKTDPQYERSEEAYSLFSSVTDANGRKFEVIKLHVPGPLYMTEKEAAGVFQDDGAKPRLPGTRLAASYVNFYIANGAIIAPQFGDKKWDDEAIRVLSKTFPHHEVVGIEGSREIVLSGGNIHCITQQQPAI

NCCCCCC(N)=O [AHX, 6-aminohexanamide] was tested, and the “X-ray crystallography (cocrystallization), 2.20 A” value was “The MtAIH-AHX structure was obtained by cocrystallization and presents the bound AHX”.
